Reference: ChEMBL document CHEMBL1201862, “PubChem BioAssay data set” (2004)
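Results reflect a 48-hour exposure of cells in 96-well plates to compound at five concentrations. GI50 is the concentration that inhibits growth by half.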 Calls of active or inactive are those of the source. Cut-off read from the data, not from the text of the source: active = GI50 up to about 1.1 µM and inactive = higher.

Key:
Test in all cases: NCI anticancer screen, dose series, 48 h
ACHN = tested on: ACHN
BT-549 = tested on: BT-549
CAKI-1 = tested on: CAKI-1
CCRF-CEM = tested on: CCRF-CEM
EKVX = tested on: EKVX
HCC 2998 = tested on: HCC 2998
HCT-15 = tested on: HCT-15
HOP-92 = tested on: HOP-92
K562 = tested on: K562
KM12 = tested on: KM12
M14 = tested on: M14
Malme-3M = tested on: Malme-3M
RXF 393 = tested on: RXF 393
SF-268 = tested on: SF-268
SK-MEL-28 = tested on: SK-MEL-28
SK-MEL-5 = tested on: SK-MEL-5
SNB-19 = tested on: SNB-19
SR = tested on: SR
MDA-N = tested on: MDA-N

| Structure (SMILES) | GI50 (ACHN) | GI50 (BT-549) | GI50 (CAKI-1) | GI50 (CCRF-CEM) | GI50 (EKVX) | GI50 (HCC 2998) | GI50 (HCT-15) [µM] | GI50 (HOP-92) | GI50 (K562) | GI50 (KM12) | GI50 (M14) | GI50 (Malme-3M) | GI50 (RXF 393) | GI50 (SF-268) | GI50 (SK-MEL-28) | GI50 (SK-MEL-5) | GI50 (SNB-19) | GI50 (SR) | GI50 (MDA-N) |
| --- | --- | --- | --- | --- | --- | --- | --- | --- | --- | --- | --- | --- | --- | --- | --- | --- | --- | --- | --- |
| CNC(=O)OC(C)CN1c2ccccc2Sc2ccccc21 (stereo not given) | 83.8 µM (inactive) | > 100 µM (inactive) | > 100 µM (inactive) | > 100 µM (inactive) | 51.4 µM (inactive) | > 100 µM (inactive) | 32.1 | 76.9 µM (inactive) | 63.7 µM (inactive) | > 100 µM (inactive) | 64.9 µM (inactive) | > 100 µM (inactive) | 36.2 µM (inactive) | > 100 µM (inactive) | > 100 µM (inactive) | 59.8 µM (inactive) | > 100 µM (inactive) | 86.3 µM (inactive) | – |
| CCOC(=O)c1ccc(/N=C/C=C(\Nc2ccc(C(=O)OCC)cc2)c2ccc3ccccc3c2)cc1 | 30.5 µM (inactive) | 17 µM (inactive) | 25 µM (inactive) | 17.9 µM (inactive) | – | – | 20.7 | 78 µM (inactive) | 13.3 µM (inactive) | 17.2 µM (inactive) | 23.7 µM (inactive) | 20.5 µM (inactive) | 21.1 µM (inactive) | 42.1 µM (inactive) | 23.5 µM (inactive) | 18.3 µM (inactive) | 36.2 µM (inactive) | 20.3 µM (inactive) | – |
| NCCN1CC2CCC(CC2)C1 | > 10 µM (inactive) | – | > 10 µM (inactive) | > 10 µM (inactive) | > 10 µM (inactive) | > 10 µM (inactive) | > 10 | – | > 10 µM (inactive) | > 10 µM (inactive) | > 10 µM (inactive) | > 10 µM (inactive) | > 10 µM (inactive) | > 10 µM (inactive) | > 10 µM (inactive) | > 10 µM (inactive) | > 10 µM (inactive) | > 10 µM (inactive) | – |
| COc1ccc(CNc2nc(NCc3ccc(OC)cc3)nc(N3CCOCC3)n2)cc1 | 5.62 µM (inactive) | 19.1 µM (inactive) | 2.71 µM (inactive) | – | 37.4 µM (inactive) | – | 2.29 | 22.8 µM (inactive) | 4.55 µM (inactive) | 2.34 µM (inactive) | 6.35 µM (inactive) | 1.03 µM (active) | > 100 µM (inactive) | – | 40.2 µM (inactive) | 5.41 µM (inactive) | 6.31 µM (inactive) | 2.79 µM (inactive) | – |
| O=C(NCCN1CCOCC1)c1ccc(I)cc1 | > 100 µM (inactive) | > 100 µM (inactive) | > 100 µM (inactive) | > 100 µM (inactive) | > 100 µM (inactive) | > 100 µM (inactive) | > 100 | – | > 100 µM (inactive) | – | > 100 µM (inactive) | – | – | > 100 µM (inactive) | > 100 µM (inactive) | > 100 µM (inactive) | > 100 µM (inactive) | > 100 µM (inactive) | – |
| O=C1CCc2c3c(c4c([nH]c5ccccc54)c2CC1)C(=O)NC3=O | 1.01 µM (active) | 7.46 µM (inactive) | 2.02 µM (inactive) | 2 µM (inactive) | 11.1 µM (inactive) | 27.9 µM (inactive) | 2.7 | 18.6 µM (inactive) | 1.19 µM (inactive) | 0.0942 µM (active) | 5.05 µM (inactive) | 3.48 µM (inactive) | 1.91 µM (inactive) | 7.85 µM (inactive) | 3.14 µM (inactive) | 1.91 µM (inactive) | 3.94 µM (inactive) | – | – |
| FC(F)(F)c1cccc(-c2nc3ccccc3c3c2[C@@]2(N4CCCC4)CCCC[C@@H]32)c1 | – | – | 50.9 µM (inactive) | 29.6 µM (inactive) | 28.7 µM (inactive) | – | – | 13.2 µM (inactive) | 30.8 µM (inactive) | 35.6 µM (inactive) | 66.2 µM (inactive) | 32.9 µM (inactive) | 38.1 µM (inactive) | 33.3 µM (inactive) | – | 15.8 µM (inactive) | 50.9 µM (inactive) | 40.9 µM (inactive) | 32.2 µM (inactive) |
| Cc1c(CN)c(C)c(CN)c(C)c1CN | > 100 µM (inactive) | > 100 µM (inactive) | > 100 µM (inactive) | > 100 µM (inactive) | > 100 µM (inactive) | > 100 µM (inactive) | > 100 | > 100 µM (inactive) | > 100 µM (inactive) | > 100 µM (inactive) | > 100 µM (inactive) | > 100 µM (inactive) | – | > 100 µM (inactive) | > 100 µM (inactive) | > 100 µM (inactive) | > 100 µM (inactive) | > 100 µM (inactive) | – |
| CCOC(=O)/C(=C/NC(=S)Nc1c(CC)cccc1C(C)(C)C)C(=O)c1ccccc1 | > 100 µM (inactive) | – | > 100 µM (inactive) | > 100 µM (inactive) | > 100 µM (inactive) | > 100 µM (inactive) | > 100 | – | 42.2 µM (inactive) | > 100 µM (inactive) | > 100 µM (inactive) | > 100 µM (inactive) | > 100 µM (inactive) | > 100 µM (inactive) | > 100 µM (inactive) | > 100 µM (inactive) | – | > 100 µM (inactive) | > 100 µM (inactive) |
| O=C(O)c1ccc(/N=N/c2cc(S(=O)(=O)O)c3cccnc3c2O)cc1 | > 100 µM (inactive) | – | > 100 µM (inactive) | – | > 100 µM (inactive) | > 100 µM (inactive) | > 100 | > 100 µM (inactive) | > 100 µM (inactive) | > 100 µM (inactive) | – | > 100 µM (inactive) | > 100 µM (inactive) | > 100 µM (inactive) | > 100 µM (inactive) | > 100 µM (inactive) | > 100 µM (inactive) | > 100 µM (inactive) | – |
| CCOC(=O)/C(=C\c1c(C)[nH]c2ccccc12)P(=O)(OCC)OCC | > 100 µM (inactive) | – | > 100 µM (inactive) | – | > 100 µM (inactive) | > 100 µM (inactive) | > 100 | – | > 100 µM (inactive) | > 100 µM (inactive) | > 100 µM (inactive) | > 100 µM (inactive) | > 100 µM (inactive) | > 100 µM (inactive) | > 100 µM (inactive) | > 100 µM (inactive) | > 100 µM (inactive) | > 100 µM (inactive) | > 100 µM (inactive) |
| O=C(C[n+]1ccccc1)N/N=C(\Cc1nc2ccc([N+](=O)[O-])cc2nc1O)C(=O)Nc1cc(Cl)c(Cl)cc1Cl | > 100 µM (inactive) | > 100 µM (inactive) | 65.6 µM (inactive) | > 100 µM (inactive) | > 100 µM (inactive) | 59 µM (inactive) | > 100 | > 100 µM (inactive) | > 100 µM (inactive) | 60.3 µM (inactive) | > 100 µM (inactive) | > 100 µM (inactive) | > 100 µM (inactive) | > 100 µM (inactive) | > 100 µM (inactive) | 95.1 µM (inactive) | > 100 µM (inactive) | > 100 µM (inactive) | – |
| CN(C)c1ccc(/C=N\NC(=O)CSCC(=O)N/N=C/c2ccc(N(C)C)cc2)cc1 | 43.4 µM (inactive) | 23.8 µM (inactive) | 64.1 µM (inactive) | 60.5 µM (inactive) | 44.5 µM (inactive) | – | 16.4 | > 100 µM (inactive) | 52.6 µM (inactive) | 41.2 µM (inactive) | 33.9 µM (inactive) | > 100 µM (inactive) | 24.9 µM (inactive) | > 100 µM (inactive) | 63.8 µM (inactive) | 30 µM (inactive) | > 100 µM (inactive) | 73.8 µM (inactive) | – |
| N=c1[nH]cnc2c1nnn2C1C=CC(COS(N)(=O)=O)C1 (stereo not given) | 4.65 µM (inactive) | – | 1.25 µM (inactive) | 13.2 µM (inactive) | 28.9 µM (inactive) | 6.53 µM (inactive) | 6.5 | – | 5.47 µM (inactive) | 9.68 µM (inactive) | 7 µM (inactive) | 15.8 µM (inactive) | 8.45 µM (inactive) | 10.7 µM (inactive) | 3.21 µM (inactive) | 3.13 µM (inactive) | 4.56 µM (inactive) | 18 µM (inactive) | 3.94 µM (inactive) |
| COc1cc2c(cc1OCCCOc1cc3c(cc1OC)C(=O)N1CCC[C@H]1C(=O)N3)N=C[C@@H]1CCCN1C2=O | 17.1 µM (inactive) | 10.3 µM (inactive) | 29.9 µM (inactive) | – | 17 µM (inactive) | 14.3 µM (inactive) | 71.3 | – | 3.77 µM (inactive) | 16.4 µM (inactive) | 20.3 µM (inactive) | 10.9 µM (inactive) | 13.3 µM (inactive) | 4.82 µM (inactive) | 21 µM (inactive) | 12.5 µM (inactive) | 27.3 µM (inactive) | 1.54 µM (inactive) | – |
| Oc1cc(-c2ccccc2)nc2ncccc12 | 0.446 µM (active) | – | 0.0792 µM (active) | 0.0867 µM (active) | > 100 µM (inactive) | 0.232 µM (active) | 0.0227 | 0.127 µM (active) | 0.0336 µM (active) | 0.0296 µM (active) | 0.0853 µM (active) | 0.091 µM (active) | 0.106 µM (active) | 1.93 µM (inactive) | 0.0743 µM (active) | 0.0778 µM (active) | 0.222 µM (active) | – | 0.0129 µM (active) |
| N#Cc1ccc2[nH]c3c(c2c1)CC(=O)Nc1ccccc1-3 [PAULLONE 2] | > 100 µM (inactive) | > 100 µM (inactive) | > 100 µM (inactive) | > 100 µM (inactive) | > 100 µM (inactive) | > 100 µM (inactive) | > 100 | > 100 µM (inactive) | > 100 µM (inactive) | – | > 100 µM (inactive) | – | > 100 µM (inactive) | > 100 µM (inactive) | > 100 µM (inactive) | > 100 µM (inactive) | > 100 µM (inactive) | 2.9 µM (inactive) | – |
